Laboratory results published in EP1201237A1, “Composition comprising an amide or a dialkylsulphoxide derivative for the treatment of cancer” (Virodene Pharmaceutical Holdings (PTY) Ltd., priority 2000, dated 2002).
Read-outs that look alike come from different tables or passages of the source.

Columns and labels:
Mama Carcinoma = experiment: Example 2: skin patch treatment of a patient with Mama Carcinoma; format: in vivo, human; conditions: three weekly treatments, 7.04g patches for 4 hours
[1] = Toxicity of DMF by route of administration; format: in vivo; conditions: subcutaneous versus oral
[2] = several 90-day studies; cited from earlier work
[3] = test system: metastasised fourth stage breast cancer; experiment: Example 1: skin patch treatment of a breast cancer patient; format: in vivo, human
Text: The patient was a person suffering from metastasised fourth stage breast cancer. The primary cancer was in the left breast and had spread to the right breast. The patient had auxiliary left and right swollen lymph glands under both arms, swelling of lymph glands under the chin and a secondary tumour near the crown of the head protruding from the skull which was four fingertips across. The patient was dehydrated and unable to keep down food or water.
A skin patch was applied to the skin adjacent the tumour for six hours. […] The gel served to prevent leakage of liquid DMF from the patches.
Each patch was applied for a period of 6 hours, on alternate days for one week followed by a one week break.

Karposi Sarcoma = experiment: Example 3: skin patch treatment of an AIDS patient with Karposi Sarcoma; format: in vivo, human
Text: A third patient was a person suffering from full blown AIDS. The patient had seven tumours which were diagnosed as Karposi Sarcoma.

EGF-transfected cells = experiment: Properties of EGF-transfected FR3T3 fibroblasts; format: cell-based
non-Hodgkins Lymphoma = experiment: Example 4: skin patch treatment of a patient with non-Hodgkins Lymphoma; format: in vivo, human
Text: A fourth patient was an adult diagnosed with non-Hodgkins Lymphoma. The patient had not been on chemotherapy and was HIV positive.

Tyrosine Kinase = Tyrosine Kinase Assay kit (non-radioactive # 1534505, Boehringer Mannheim); format: biochemical; conditions: values only in Appendix images
Text: The results are set out in the Appendix below. [formula] [formula]

[4] = test system: chemistry transformed fibroblasts; experiment: Phenotype of chemically transformed fibroblasts; format: cell-based
[5] = oral study; cited from earlier work
FR3T3 fibroblasts = experiment: EGF binding and EGF secretion in transfected FR3T3 lines and control cells; format: cell-based
Text: (§1) The high proliferation rate of the ras-3 cells was associated with elevated expression of protein B23. The 19-3 cells. But not the ras-3 cells, expressed cell surface fibronectin.

ras-transfected cells = experiment: Properties of ras-transfected FR3T3 fibroblasts; format: cell-based
Text: as §1

[6] = in vivo; cited from earlier work
[7] = Single dose study of disposition, safety, tolerability and pharmacokinetics of virodene P058 in healthy volunteers; format: in vivo; conditions: 7,06 g of DMF transdermally once a week for 8 hours, human subjects
Text: A draft interim clinical safety report produced by Guy's Drug Research Unit of Kings College and St Thomas' Hospitals' Medical and Dental School is set out below.
A single dose study of the disposition, safety, tolerability and pharmacokinetics of virodene P058 in healthy volunteers.
• ° 5 subjects dosed on day 1 (subjects 001 - 005) • ° 5 subjects dosed on day 14 (subjects 006 - 010) • ° No withdrawals • ° Final follow up for subjects 001 - 005 occurred on day 15 • ° Final follow up for subjects 006 - 010 due on day 28 Table 1.1 -
The first patch was applied at 10h00 on day 1 for subjects 001 - 005 and at 09h20 on […] for subjects 006 - 010 with 10 minute intervals between dosing.
• ° Laboratory Safety Values: No clinically significant changes observed for biochemistry, liver function tests, haematology or coagulation parameters. • ° Vital Signs - There were no obvious clinically significant changes observed • ° Continuous lead [I monitoring - No clinically significant changes observed] • ° 12 kead ECG - No clinically significant changes observed • ° Adverse events are reported in Table 1.2

[8] = test system: HOC-7 ovarian adenocarcinoma cells; experiment: Immunocytochemistry of HOC-7 cells; format: cell-based, human
Text: (§2) (HOC-7) to a malignant cell. This was also found in human colon carcinoma. (Factor - beta 1 is growth factor, that can be up regulated or transformed in human cells.)
(§3) Exposure of HOC-7 ovarian adenocarcinoma cells to regulators of cell differentiation caused inducer-dependent alterations of the antigenic pattern of the cells. […] Stimulation of fibronectin was also seen after addition of transforming growth factor (TGF) - beta 1. […] CA 125, Fibronectin, and desmoplakins I and II. TGF - beta 1 stimulated fibronectin and desmoplakins I and II only.

myc onco-proteins = experiment: In-vitro studies in cell cultures: myc expression; format: cell-based
Text: (§4) Instead of a piling pattern, mono layers of cells in regular parallel orientation formed that were typical of non-malignant fibroblasts. […] Focal Adhesion Kinase (FAK) is activated in response to receptor activation at focal adhesion sites. FAK is a substrate for the oncogenic forms of the src-family of tyrosine kinases. The action of polar agents on oncogenic expression is believed to be the induction of cancer cells to become more benign. It would seem reasonable that to convert a malignant cell to a benign phenotype, there should be some modulation of gene expression causing malignancy in the first place. In the HL-60 human promyelocytic leukemia cells, dimethylsulfoxide (DMSO) reduced the expression of c-myc oncogenes by 80 to 90%. Some brain tumours are regulated by glial-binding growth factors such as Epidermal Growth Factor (EGF) and Platelet Derived Growth Factor (PDGF) both of which are related to oncogenes. The PDGF β-chain gene is the cellular homologue and proto-oncogene of the viral […] oncogene. Cell maturation induced by polar agents (N-MF) as single agents is most likely to be effective in Neuroblastoma and Glioblastoma (as well as leukemia and melanoma). Polar agents easily penetrate the blood brain barrier and sensitize tumour cells to both X-radiation and cis-platinum. […]

[9] = test system: virus transformed mice kidney cell-lines; experiment: Growth pattern of virus transformed kidney cell-lines; format: cell-based; conditions: growth medium supplemented by 0.5% DMF
Text: as §4

[10] = inhalation study with rabbits; cited from earlier work
HOC-7 cells = experiment: Immunophenotype and growth of HOC-7 cells; format: cell-based, human
Text: Production of EGF and TGF - alpha was not affected by these inducers. Immunocytochemistry. […] The expression of myconcoproteins was inversely related to cell proliferation CA 125, however, seems to be unrelated to cell growth.

[11] = DMF level in the patient's blood during patch treatment; format: in vivo, human; conditions: patches of about 7,064 g DMF
Method: For a patient weighing about 60 kg, an amount of about 14 g over a period of 12 hours is required to produce a level of 100 ppm. […] Absorption capability varies from patient to patient depending on factors such as skin-type and skin thickness.
Daily full clinical and psychological evaluations were also conducted.

[12] = test system: HOC-7 ovarian adenocarcinoma cells; experiment: ELISA of antigen expression in HOC-7 cells; format: cell-based, human
Text: as §2, §3

DNA sequences = experiment: In-vitro studies in cell cultures: effect on DNA; format: cell-based
Text: as §4

c-myc oncogenes = experiment: c-myc expression in HL-60 cells; format: cell-based; conditions: HL-60 human promyelocytic leukemia cells
Text: as §4

CN(C)C=O [DMF, dimethylformamide]
bleeding (Mama Carcinoma): bleeding disappeared | pain (Mama Carcinoma): less pain | tumour shrunk in diameter (Mama Carcinoma; 3 weeks, 53 cm before treatment): 7 cm | toxicity, subcutaneously as compared with oral administration [1]: 5 - 10 times lower | NOAEL (No-Adverse-observed-Effect-Level) [2]: could not be established | temperature of the tumour ([3]; during patch treatment): dropped to normal | tumour reduced in size ([3]; patches 6 hours on alternate days for one week, then one week break): 1 - 2 mm per week | patient's appetite ([3]; three days after the treatment began): appetite returned | tumour diameter ([3]; two days after first 6 hour patch, 32 cm before treatment): 29,5 cm | tumour circumference ([3]; two days after first 6 hour patch, 52 cm before treatment): 51 cm | recurrence of tumours (Karposi Sarcoma; after 18 months): no tumours had recurred | tumours (Karposi Sarcoma; after six treatments): disappeared | tumours (Karposi Sarcoma; after two weekly treatments, 7.04g patches for 8 hours, seven tumours): faded | anchorage-independent growth (EGF-transfected cells): inhibition | normal cellular morphology and growth rate in monolayer culture (EGF-transfected cells): restoration | proliferation-associated nucleolar protein B23 (EGF-transfected cells): down-regulation | cancer (non-Hodgkins Lymphoma; after eight treatments, 7.04g patches for 8 hours, 8 weeks): disappeared | recurrence of cancer (non-Hodgkins Lymphoma; eight months later): had not recurred | effect of DMF on PTK (Tyrosine Kinase): Tyrosine Kinase inhibitor | phenotype of transformed fibroblasts [4]: restoration of a nontransformed phenotype | NOAEL for developmental effects [5]: 44 mg/kg body weight | secretion of EGF (FR3T3 fibroblasts; 2 transfected lines as well as control cells): increased | EGF binding (FR3T3 fibroblasts; transfected cell lines): in neither case did DMF alter | fibronectin expression (ras-transfected cells; ras-3 cells): did not restore | growth in monolayer culture or under anchorage-independent growth conditions (ras-transfected cells; ras-transfected cells, compared with EGF-transfected cells): much slighter effect | acute dermal, oral and inhalation toxicity [6]: low | liver enzymes [7]: does not result in raised liver enzymes | serious adverse events [7]: no serious adverse events | toxicity [7]: non-toxic | cytoplasmic and surface labeling for CA 125 and disposition of fibronectin into the extracellular matrix [8]: stimulated | membrane staining for epidermal growth factor (EGF) receptor and for desmoplakins I and II [8]: elevated | expression of myc onco-proteins (myc onco-proteins): inhibited | random piling, non-contact-inhibited growth pattern [9]: marked alteration | NOAEL for developmental effects [10]: 150 mg/m^3 | cell growth (HOC-7 cells; HOC-7 cells): growth inhibition | effectiveness in changing the immunophenotype of HOC-7 cells (HOC-7 cells; compared with TGF-beta 1): more effective | DMF blood level obtained ([11]; after loss by evaporation): 100 ppm | DMF blood level delivered in theory ([11]; theoretical): 125 - 135 ppm | expression of EGF - receptor, CA 125, Fibronectin, and desmoplakins I and II [12]: dose dependently induced | effect on DNA sequences (DNA sequences): conformational changes and hypomethylation

C[S+](C)[O-] [DMSO, dimethylsulfoxide]
reduced expression of c-myc oncogenes (c-myc oncogenes): 80 to 90%
